The test system of one data set is MM1.S. The data set can be described thus: Growth inhibition of human MM1.S cells incubated for 72 hrs by CellTiter-Blue assay. In kind it is functional, cell-based.
Data set [1] addresses T1, Bromodomain-containing protein 4 (Homo sapiens, UniProt O60885). The data set is described as follows: Inhibition of BRD4 in human MM1.S cells assessed as reduction in c-MYC level after 6 hrs by Western blot analysis. In kind it is cell-based. A general note: A western blot detects proteins with antibodies after separation by electrophoresis.
In data set [2] the target is T2, Bromodomain testis-specific protein (Homo sapiens, UniProt Q58F21). The data set is described as follows: Inhibition of recombinant human BRDT-1 (21 to 137 residues) expressed in bacterial expression system by bromoscan assay.
Data set [3] has as its target T1, Bromodomain-containing protein 4. The data set is described as follows: Inhibition of recombinant human BRD4-1 (44 to 168 residues) expressed in bacterial expression system by bromoscan assay.
For data set [4] the target is unchanged. The data set is described as follows: Inhibition of recombinant human BRD4-2 (333 to 460 residues) expressed in bacterial expression system by bromoscan assay.
Data set [5] shares this target. The data set can be described thus: Binding affinity to BRD4-T (unknown origin).
Data set [6] can be described thus: Metabolic stability in pooled human liver microsomes assessed as half life. The data set is classed as ADME, Microsome. To be noted: for half-life: pooled human liver microsomes; for t1/2: microsomes. (Liver microsomes are a subcellular fraction often used to study metabolism.)
The nature of data set [7]: Permeability in MDCK-MDR1 cells. To be noted: dog; for Papp: MDCK-MDR1, read-out: permeability. In kind it is ADME, cell-based, Canis lupus familiaris.
Data set [8] can be described thus: Metabolic stability in pooled mouse liver microsomes assessed as half life. The data set is classed as ADME, Microsome. Conditions: for half-life: pooled mouse liver microsomes; for t1/2: microsomes.
Data set [9] has as its target T2, Bromodomain testis-specific protein. The data set is described as follows: Binding affinity to N-terminal hexa-histidine tagged BRDT-T (2 to 416 residues) (unknown origin) expressed in Escherichia coli BL21(DE3) cells.
Data set [10] has the same target. The data set is described as follows: Inhibition of recombinant human BRDT-2 (250 to 382 residues) expressed in bacterial expression system by bromoscan assay.
Another data set is filed under the species Homo sapiens. The data set is described as follows: Selectivity ratio of Kd for BRD4 (unknown origin) to Kd for BRDT (unknown origin).

In general, IC50 refers to the midpoint of a concentration-inhibition curve. As a reminder, the Kd is a measure of binding affinity in units of concentration. For the compound `Cn1cc(-c2cccc(N3CCCC3=O)c2)c2ccccc2c1=O`, the figures for the half-inhibitory concentration (IC50) (in the data set with MM1.S; in data set [1]) were 58 nM and over 1000 nM, respectively. Moreover, the equilibrium dissociation constant (Kd) in data set [2] was 875 nM; in data set [3], 335 nM.

The term half-life denotes how long it takes for the measured level to halve. For the compound `CCS(=O)(=O)Nc1ccc(OCCOCCOCCOCCOc2ccc(NS(=O)(=O)CC)cc2-c2cn(C)c(=O)c3ccccc23)c(-c2cn(C)c(=O)c3ccccc23)c1`, the Kd was 0.32 nM in [4]; 0.29 nM in data set [5]; 0.089 nM in data set [2]; 0.058 nM in data set [9]; 5.5 nM in [10]; 0.095 nM in data set [3]. Further, the half-life in data set [6] worked out at 315 min; in [8], 11 min. The Papp in data set [7] came out at 15 ×10⁻⁶ cm/s.

With `CCS(=O)(=O)Nc1ccc(Oc2ccc(Cl)cc2)c(-c2cn(C)c(=O)c3ccccc23)c1`, the Kd was 3.7 nM in data set [4]; 2.3 nM in data set [5]; 5 nM in data set [2]; 6 nM in data set [9]; 12 nM in data set [10]; 3.6 nM in data set [3]. In the data set on MM1.S, the IC50 amounted to 8.5 nM. Moreover, the results for the t1/2 in data set [6] and in [8] were 299 min and 74 min, respectively. For the same compound, the permeability in [7] (mdck-mdr1) is listed as 2.7 10^-6 cm/s.

Take `Cc1cnc(Nc2ccc(C(=O)NC3CCN(C(=O)CCOCCOCCOCCOCCC(=O)N4CCC(NC(=O)c5ccc(Nc6ncc(C)c(Nc7ccc(Cl)c(NS(=O)(=O)C(C)(C)C)c7)n6)cc5F)CC4)CC3)c(F)c2)nc1Nc1ccc(Cl)c(NS(=O)(=O)C(C)(C)C)c1`: the Kd in [4] is 3 nM; in data set [5] it was 2.8 nM; in [2], 0.92 nM; in data set [9], 1.55 nM; in [10], 1.7 nM; in data set [3], 6.4 nM. Also, half-maximal inhibition with MM1.S (IC50) required 34 nM. In addition, the t1/2 in [6] was determined as 5.6 min; in [8], 4.1 min.

Turning to `Cc1cnc(Nc2ccc(C(=O)NC3CCN(C(=O)COCCOCC(=O)N4CCC(NC(=O)c5ccc(Nc6ncc(C)c(Nc7ccc(Cl)c(NS(=O)(=O)C(C)(C)C)c7)n6)cc5F)CC4)CC3)c(F)c2)nc1Nc1ccc(Cl)c(NS(=O)(=O)C(C)(C)C)c1`, the dissociation constant (Kd) in data set [4] turned out to be 3.1 nM; in data set [5] it was 3.6 nM; in data set [2], 0.84 nM; in data set [9], 0.59 nM; in data set [10], 3.5 nM; in data set [3], 4 nM. Moreover, half-maximal inhibition with MM1.S (IC50) required 44 nM.

As to `Cc1cnc(Nc2ccc(C(=O)NC3CCNCC3)c(F)c2)nc1Nc1cc(NS(=O)(=O)C(C)(C)C)cc(C(=O)NCCOCCOCCOCCC(=O)N2CCC(NC(=O)c3ccc(Nc4ncc(C)c(Nc5ccc(Cl)c(NS(=O)(=O)C(C)(C)C)c5)n4)cc3F)CC2)c1`, the Kd amounted to 3.2 nM in data set [4]; 1.7 nM in data set [5]; 0.16 nM in data set [2]; 1.3 nM in data set [9]; 3.1 nM in data set [10]; 6 nM in [3]. In the data set on MM1.S, this compound displayed a half-maximal inhibitory concentration (IC50) of 1100 nM. Besides, the half-life in data set [6] is 2.2 min. The Selectivity ratio in the data set listed under Homo sapiens worked out at 12. Besides, in [8], the t1/2 is recorded as 55 min.

For `Cc1cnc(Nc2ccc(C(=O)NC3CCN(C(=O)CCOCCOCCOCCOCCOCCC(=O)N4CCC(NC(=O)c5ccc(Nc6ncc(C)c(Nc7ccc(Cl)c(NS(=O)(=O)C(C)(C)C)c7)n6)cc5F)CC4)CC3)c(F)c2)nc1Nc1ccc(Cl)c(NS(=O)(=O)C(C)(C)C)c1`, the Kd in data set [4] was 1.5 nM; in [5], 1.6 nM; in [2] it was 0.6 nM; in data set [9], 0.8 nM; in data set [10], 2.2 nM; in data set [3], 4.6 nM. This compound also registered a half-maximal inhibitory concentration (IC50) in the data set on MM1.S of 30 nM. For the same compound, the t1/2 in [6] is on record as 10 min; in data set [8], 30 min.

For the compound `CCS(=O)(=O)Nc1cccc(-c2cn(C)c(=O)c3ccccc23)c1`, the half-life in data set [6] and in data set [8] was under 2.3 min in each case. Also, in [7], the Papp stood at 0.13 ×10⁻⁶ cm/s. For the same compound, the Kd in [2] is 77 nM.

Turning to `Cc1cnc(Nc2ccc(C(=O)NC3CCN(C(=O)COCCOCCOCC(=O)N4CCC(NC(=O)c5ccc(Nc6ncc(C)c(Nc7ccc(Cl)c(NS(=O)(=O)C(C)(C)C)c7)n6)cc5F)CC4)CC3)c(F)c2)nc1Nc1ccc(Cl)c(NS(=O)(=O)C(C)(C)C)c1`, the Kd in [4] was 9.1 nM; in data set [5], 4.8 nM; in [2], 0.6 nM; in data set [9], 2.6 nM; in data set [10], 8.4 nM; in data set [3], 28 nM. The compound further had a half-maximal inhibitory concentration (IC50) in the data set on MM1.S of 59 nM.

With `Cc1cnc(Nc2ccc(C(=O)NC3CCN(C)CC3)c(F)c2)nc1Nc1ccc(Cl)c(NS(=O)(=O)C(C)(C)C)c1`, the Kd in [4] was 20 nM; in data set [5], 6.7 nM; in [2] it was 9.5 nM; in data set [9] it was 18 nM; in data set [10], 25 nM. In the data set with MM1.S, this compound yielded a concentration for half-maximal inhibition (IC50) of 61 nM.

The values above are taken from ChEMBL document CHEMBL5120946, “Bivalent BET Bromodomain Inhibitors Confer Increased Potency and Selectivity for BRDT via Protein Conformational Plasticity” (J Med Chem, 2022).
